From patent US8426441B2, “Inhibitors of bruton's tyrosine kinase” (Roche Palo Alto LLC, priority 2007, dated 2013)

What was measured:
[1] = molecular target: T1, Btk enzyme (His-tagged, full-length) (Homo sapiens, UniProt Q06187); assay: Bruton's Tyrosine Kinase (Btk) Inhibition Assay (33P filtration capture); assay type: biochemical; settings: 100 μM ATP, 30 μM biotinylated SH2 peptide substrate, 30 min at 30° C.
T1 construct: 5-10 nM Btk enzyme (His-tagged, full-length); His
Excerpt: The assay is a capture of radioactive ^33P phosphorylated product through filtration. The interactions of Btk, biotinylated SH2 peptide substrate (Src homology), and ATP lead to phosphorylation of the peptide substrate. Biotinylated product is bound streptavidin sepharose beads. All bound, radiolabeled products are detected by scintillation counter.
Plates assayed are 96-well polypropylene (Greiner) and 96-well 1.2 μm hydrophilic PVDF filter plates (Millipore). Concentrations reported here are final assay concentrations: 10-100 μM compounds in DMSO (Burdick and Jackson), 5-10 nM Btk enzyme (His-tagged, full-length), 30 μM peptide substrate (Biotin-Aca-AAAEEIYGEI-NH2), 100 μM ATP (Sigma), 8 mM imidazole (Sigma, pH 7.2), 8 mM glycerol-2-phosphate (Sigma), 200 μM EGTA (Roche Diagnostics), 1 mM MnCl2 (Sigma), 20 mM MgCl2 (Sigma), 0.1 mg/ml BSA (Sigma), 2 mM DTT (Sigma), 1 μCi ^33P ATP (Amersham), 20% streptavidin sepharose beads (Amersham), 50 mM EDTA (Gibco), 2 M NaCl (Gibco), 2 M NaCl w/1% phosphoric acid (Gibco), microscint-20 (Perkin Elmer).
IC50 determinations are calculated from 10 data points per compound utilizing data produced from a standard 96-well plate assay template. One control compound and seven unknown inhibitors were tested on each plate and each plate was run twice. Typically, compounds were diluted in half-log starting at 100 μM and ending at 3 nM. The control compound was staurosporine. Background was counted in the absence of peptide substrate. Total activity was determined in the presence of peptide substrate. The following protocol was used to determine Btk inhibition.
1) Sample preparation: The test compounds were diluted at half-log increments in assay buffer (imidazole, glycerol-2-phosphate, EGTA, MnCl2, MgCl2, BSA).
2) Bead preparation • a.) rinse beads by centrifuging at 500 g • b.) reconstitute the beads with PBS and EDTA to produce a 20% bead slurry
3) Pre-incubate reaction mix without substrate (assay buffer, DTT, ATP, P ATP) and mix with substrate (assay buffer, DTT, ATP, ^33P ATP, peptide substrate) 30° C. for 15 min.
4) To start assay, pre-incubate 10 μL Btk in enzyme buffer (imidazole, glycerol-2-phosphate, BSA) and 10 μL of test compounds for 10 min at RT.
5) Add 30 μL reaction mixture without or with substrate to Btk and compounds.
6) Incubate 50 μL total assay mix for 30 min at 30° C.
7) Transfer 40 μL of assay to 150 μL bead slurry in filter plate to stop reaction.
8) Wash filter plate after 30 min, with following steps • a. 3×250 μL NaCl • b. 3×250 μL NaCl containing 1% phosphoric acid • c. 1×250 μL H2O
9) Dry plate for 1 h at 65° C. or overnight at RT
10) Add 50 μL microscint-20 and count ^33P cpm on scintillation counter.
Calculate percent activity from raw data in cpm percent activity=(sample−bkg)/(total activity−bkg)×100
Calculate IC50 from percent activity, using one-site dose response sigmoidal model y=A+((B−A)/(1+((x/C)^D)))) • x=cmpd conc, y=% activity, A=min, B=max, C=IC50, D=1 (hill slope)

T1 sequence (Q06187 whole entry): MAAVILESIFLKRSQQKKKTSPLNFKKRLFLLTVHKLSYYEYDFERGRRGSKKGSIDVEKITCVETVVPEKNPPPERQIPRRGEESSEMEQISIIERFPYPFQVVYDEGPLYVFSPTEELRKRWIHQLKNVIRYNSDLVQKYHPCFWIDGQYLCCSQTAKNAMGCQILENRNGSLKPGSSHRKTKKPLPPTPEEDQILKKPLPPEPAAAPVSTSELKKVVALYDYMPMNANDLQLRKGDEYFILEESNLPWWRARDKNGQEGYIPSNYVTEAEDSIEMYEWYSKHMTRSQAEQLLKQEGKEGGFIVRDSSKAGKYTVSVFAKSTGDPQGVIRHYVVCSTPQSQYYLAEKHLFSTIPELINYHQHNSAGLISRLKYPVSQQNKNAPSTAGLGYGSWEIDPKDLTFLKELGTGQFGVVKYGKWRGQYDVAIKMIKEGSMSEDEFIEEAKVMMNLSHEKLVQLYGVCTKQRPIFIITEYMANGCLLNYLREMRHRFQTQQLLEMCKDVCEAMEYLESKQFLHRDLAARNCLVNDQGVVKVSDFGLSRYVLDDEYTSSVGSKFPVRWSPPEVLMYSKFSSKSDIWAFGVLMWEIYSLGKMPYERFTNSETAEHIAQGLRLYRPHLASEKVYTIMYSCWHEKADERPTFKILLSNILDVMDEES

Row | Structure (SMILES) | IC50 [1] [nM] | melting point [°C]
1 | Cc1c(NC(=O)c2ccc(C(C)(C)C)cc2)cccc1-c1cc(NC(=O)NCCCN(C)C)c2nccn2c1 [Example I-77, 4-tert-Butyl-N-(3-{8-[3-(3-dimethylamino-propyl)-ureido]-imidazo[1,2-a]pyridin-6-yl}-2-methyl-phenyl)-benzamide] | 18 | 182.7 to 199.7
2 | CNC(=O)Nc1cc(-c2cccc(NC(=O)c3ccc(C(C)(C)C)cc3)c2C)nn2ccnc12 [Example I-8, 4-tert-Butyl-N-{2-methyl-3-[8-(3-methyl-ureido)-imidazo[1,2-b]pyridazin-6-yl]-phenyl}-benzamide] | 10 | 163 to 165
3 | Cc1c(NC(=O)NC2CCC(S(C)(=O)=O)CC2)cccc1-c1cc(Nc2ccc(C(=O)N3CCOCC3)cn2)c2nccn2c1 (stereo not drawn) [Example I-218, 1-(4-Methanesulfonyl-cyclohexyl)-3-(2-methyl-3-{8-[5-(morpholine-4-carbonyl)-pyridin-2-ylamino]-imidazo[1,2-a]pyridin-6-yl}-phenyl)-urea] | 10 | 
4 | CCNC(=O)Nc1cc(-c2cccc(NC(=O)c3ccc(C(C)(C)C)cc3)c2C)nn2ccnc12 [Example I-7, 4-tert-Butyl-N-{3-[8-(3-ethyl-ureido)-imidazo[1,2-b]pyridazin-6-yl]-2-methyl-phenyl}-benzamide] | 22 | 181 to 183
5 | CNC(=O)Nc1cc(-c2cccc(CC(=O)NCC#CC(C)(C)C)c2)cn2ccnc12 [Example I-99, N-(4,4-Dimethyl-pent-2-ynyl)-2-{3-[8-(3-methyl-ureido)-imidazo[1,2-a]pyridin-6-yl]-phenyl}-acetamide] |  | 129 to 130
6 | Cn1ccc(Nc2cc(-c3cccc(NC(=O)c4ccc(C5CC5)cc4)c3CO)nn3ccnc23)n1 [Example I-45, 4-Cyclopropyl-N-{2-hydroxymethyl-3-[8-(1-methyl-1H-pyrazol-3-ylamino)-imidazo[1,2-b]pyridazin-6-yl]-phenyl}-benzamide] | 15 | 
7 | Cc1c(NC(=O)c2ccc(C(C)(C)C)cc2)cccc1-c1cc(NC(=O)NCCO)c2nccn2n1 [Example I-11, 4-tert-Butyl-N-(3-{8-[3-(2-hydroxy-ethyl)-ureido]-imidazo[1,2-b]pyridazin-6-yl}-2-methyl-phenyl)-benzamide] | 19 | 183 to 184
8 | Cc1c(NC(=O)c2ccc(N(C)C)cc2)cccc1-c1cc(NC(=O)NCCCO)c2nccn2c1 [Example I-69, 4-Dimethylamino-N-(3-{8-[3-(3-hydroxy-propyl)-ureido]-imidazo[1,2-a]pyridin-6-yl}-2-methyl-phenyl)-benzamide] |  | 144.1 to 188.6
9 | Cc1c(NC(=O)c2ccc(C(C)(C)C)cc2)cccc1-c1cc(NC(=O)NCCCN2CCN(C)CC2)c2nccn2c1 [Example I-94, 4-tert-Butyl-N-[2-methyl-3-(8-{3-[3-(4-methyl-piperazin-1-yl)-propyl]-ureido}-imidazo[1,2-a]pyridin-6-yl)-phenyl]-benzamide] |  | 167 to 168
10 | Cc1c(NC(=O)N2CC(OC(C)(C)C)C2)cccc1-c1cc(NC(=O)NCCCN(C)C)c2nccn2c1 [Example I-70, 3-tert-Butoxy-azetidine-1-carboxylic acid {3-{8-[3-(3-dimethylamino-propyl)-ureido]-imidazo[1,2-a]pyridin-6-yl}-2-methyl-phenyl)-amide] |  | 129 to 130
11 | Cc1c(NC(=O)c2ccc(N(C)C)cc2)cccc1-c1cc(NC(=O)NCCCN2CCN(C)CC2)c2nccn2c1 [Example I-72, 4-Dimethylamino-N-[2-methyl-3-(8-{3-[3-(4-methyl-piperazin-1-yl)-propyl]-ureido}-imidazo[1,2-a]pyridin-6-yl)-phenyl]-benzamide] |  | 144 to 145
12 | CCC(=O)Nc1cc(-c2cccc(NC(=O)c3ccc(C(C)(C)C)cc3)c2C)cn2ccnc12 [Example I-54, 4-tert-Butyl-N-[2-methyl-3-(8-propionylamino-imidazo[1,2-a]pyridin-6-yl)-phenyl]-benzamide] |  | 99 to 100
13 | CNC(=O)Nc1cc(-c2ccccc2)nn2ccnc12 [Example I-13, 1-Methyl-3-(6-phenyl-imidazo[1,2-b]pyridazin-8-yl)-urea] |  | 192 to 193
14 | O=C(Nc1cccc(-c2cc(Nc3ccc(C(=O)N4CCOCC4)cn3)c3nccn3n2)c1CO)c1ccc(C2CC2)cc1 [Example I-43, 4-Cyclopropyl-N-(2-hydroxymethyl-3-{8-[5-(morpholine-4-carbonyl)-pyridin-2-ylamino]-imidazo[1,2-b]pyridazin-6-yl}-phenyl)-benzamide] | 13 | 
15 | C1=C(c2cc(Nc3ccccn3)c3nccn3n2)CCCC1 [Example I-3, (6-Cyclohex-1-enyl-imidazo[1,2-b]pyridazin-8-yl)-pyridin-2-yl-amine] |  | 160.7 to 161.5
16 | CNC(=O)Nc1cc(-c2cccc(NC(=O)c3ccc(C(C)(C)C)cc3)c2C)cn2ccnc12 [Example I-56, 4-tert-Butyl-N-{2-methyl-3-[8-(3-methyl-ureido)-imidazo[1,2-a]pyridin-6-yl]-phenyl}-benzamide] | 24 | 148 to 149
17 | Cc1c(NC(=O)c2ccc(C(O)(C(F)(F)F)C(F)(F)F)cc2)cccc1-c1cc(NC(=O)NCCCN(C)C)c2nccn2c1 [Example I-98, N-(3-{8-[3-(3-Dimethylamino-propyl)-ureido]-imidazo[1,2-a]pyridin-6-yl}-2-methyl-phenyl)-4-(2,2,2-trifluoro-1-hydroxy-1-trifluoromethyl-ethyl)-benzamide] |  | 198 to 200
18 | CCOC(=O)c1ccc(Nc2cc(-c3ccccc3)cn3ccnc23)nc1 [Example I-47, 6-(6-Phenyl-imidazo[1,2-a]pyridin-8-ylamino)-nicotinic acid ethyl ester] |  | 141.5 to 142.5
19 | CC(O)(C#CCNC(=O)Cc1cccc(-c2cc(Nc3ccc(C(=O)N4CCOCC4)cn3)c3nccn3c2)c1)C(F)(F)F (stereo not drawn) [Example I-84, 2-(3-{8-[5-(Morpholine-4-carbonyl)-pyridin-2-ylamino]-imidazo[1,2-a]pyridin-6-yl}-phenyl)-N-(5,5,5-trifluoro-4-hydroxy-4-methyl-pent-2-ynyl)-acetamide] |  | 136.8 to 147.5
20 | Cc1c(NC(=O)c2ccc(N(C)C)cc2)cccc1-c1cc(NC(=O)NCCCN2CCOCC2)c2nccn2c1 [Example I-68, 4-Dimethylamino-N-(2-methyl-3-{8-[3-(3-morpholin-4-yl-propyl)-ureido]-imidazo[1,2-a]pyridin-6-yl}-phenyl)-benzamide] |  | 190.2 to 209.7
21 | CCNC(=O)Nc1cc(-c2cccc(NC(=O)c3ccc(C(C)(C)C)cc3)c2C)cn2ccnc12 [Example I-53, 4-tert-Butyl-N-{3-[8-(3-ethyl-ureido)-imidazo[1,2-a]pyridin-6-yl]-2-methyl-phenyl}-benzamide] | 13 | 
22 | Cc1c(NC(=O)c2ccc(C(C)(C)C)cc2)cccc1-c1cc(NC(=O)NCCO)c2nccn2c1 [Example I-71, 4-tert-Butyl-N-(3-{8-[3-(2-hydroxy-ethyl)-ureido]-imidazo[1,2-a]pyridin-6-yl}-2-methyl-phenyl)-benzamide] |  | 176 to 177
